Test results from US11690813B2, “Aminothiol reduction of ischemia-reperfusion-induced cell death” (OBVIA PHARMACEUTICALS LTD, priority 2018, dated 2023).
Where “and” joins values, the source holds several entries; their conditions need not be identical. Equal values may be shown once. Read-outs that look alike come from different tables or passages of the source.

What was measured:
irradiated skin = type: in vivo, rat
[1] = humans; cited from earlier work
[2] = in vivo
[3] = rat, in vivo
pUC19 plasmid DNA [4] = experiment: x-irradiation ROS-induced nicking of pUC19 plasmid DNA; type: biochemical
[5] = rats; cited from earlier work
[6] = test system: Caspase 3 and 7 activity in kidney homogenate supernates; conditions: mouse, in vivo, ip
[7] = mouse, in vivo
physchem = conditions: buffer, pH 7.2
cardiac muscle = conditions: mouse, in vivo, ip
[8] = mouse, in vivo; remark: listed apart in the source
[9] = design: species or system mice; conditions: mouse, in vivo
[10] = test system: serum blood urea nitrogen (BUN); conditions: mouse, in vivo, ip
human blood lymphocytes = type: cell-based
[11] = test system: primary neonate cardiac myocytes; type: cell-based, mice
pUC19 plasmid DNA [12] = type: biochemical
[13] = added 15 min before 90 Gy x-irradiation over 30 min

What does the source list for `NCCCNCCSP(=O)(O)O` [Amifostine, amifostine]?
Ionizing Radiation-ROS-Induced Dermatitis (% Clear Skin) (irradiated skin; Topical 100 mM, day 13): 0 % Clear Skin; hypotension/fainting side effects [1]: hypotension/fainting side effects; nausea/emesis side effects [1]: severe nausea/emesis side effects; retching and emesis responses [2]: significant bouts of both retching and emesis; blood pressure response to challenge dose of IP epinephrine after drug [3]: no discernible effect upon blood pressure; effect on blood pressure ([3]; ip): immediate and irreversible drop in blood pressure; ocular toxicity associated with chronic hypotension ([3]; ip): discernible ocular phenotype/toxicity

With `NCCCNCCS` [WR-1065, reference compound] as the molecule, how does the “suppression of ROS-induced damage to plasmid DNA” value (shortened to “suppression of ROS-induced damage”) (pUC19 plasmid DNA [4]; [13]) read?
Its value is “dose-dependent suppression”.

What about the hypotension side effects [5] of the same molecule?
The hypotension side effects was “hypotension side effects”.

With `NCC(CN)CS` [PrC-211] as the molecule, how does the “reduction in level of kidney caspase at 0.24 MTD” value [6] read?
The value was “highly significant reductions”.

And the “Ionizing Radiation-ROS-Induced Dermatitis (% Clear Skin)” value (irradiated skin; rat, in vivo)?
Its value is 55 % Clear Skin and 100 % Clear Skin.

And the “Ionizing Radiation-ROS-Induced Dermatitis (% Clear Skin)” value (irradiated skin; rat, in vivo, ip)?
The value was 87 % Clear Skin.

What about the “IP maximum tolerated dose (MTD)” value [7] of the same molecule?
The value was 500 ug/gm body weight.

For `CN(C)C(=O)C(CCN1CCC(O)(c2ccc(Cl)cc2)CC1)(c1ccccc1)c1ccccc1` [loperamide], which “retching and emesis responses” value [2] is on record?
The value was “strong retch and emesis responses”.

For `NCCS` [cysteamine, reference compound], which “suppression of ROS-induced damage” value (pUC19 plasmid DNA [4]; [13]) is on record?
The value was “dose-dependent suppression”.

With `CNCC(CS)CNC` [PrC-210] as the molecule, how does the “reduction in level of kidney caspase” value [6] read?
The value was 84%.

What about the “reduction in level of kidney caspase at 0.24 MTD” value [6] of the same molecule?
Its value is “highly significant reductions”.

And the “reduction in level of kidney caspase over dose range” value [6]?
Its value is “dose-dependent reduction”.

And the half-life (physchem)?
The half-life was 3.5 h.

And the “reduction in percentage of total cardiac muscle stained as dead-tissue” value (cardiac muscle)?
The value was 36%.

What about the “PrC-210 thiol blood concentration” value [8] of the same molecule?
The value was 3 mM.

And the “plasma/blood concentrations of PrC-210 thiol associated with protection” value [8]?
The value was 1 to 3 mM.

And the “Ionizing Radiation-ROS-Induced Dermatitis (% Clear Skin)” value (irradiated skin; rat, in vivo)?
Its value is 100 % Clear Skin.

What about the “Ionizing Radiation-ROS-Induced Dermatitis (% Clear Skin)” value (irradiated skin; rat, in vivo, ip) of the same molecule?
The value was 100 % Clear Skin.

And the “suppression of radiation-induced death” value [9]?
Its value is “complete suppression”.

What about the “survival against otherwise 100% lethal dose of radiation” value [9] of the same molecule?
The value was 100%.

What about the “reduction in serum blood urea nitrogen (BUN) level” value [10] of the same molecule?
Its value is “like reduction”.

And the “suppression of ROS-induced damage” value (pUC19 plasmid DNA [4])?
The value was “dose-dependent suppression”.

What about the “suppression of pUC19 DNA damage” value (pUC19 plasmid DNA [4]) of the same molecule?
Its value is 90%.

And the “suppression of γ-H2AX foci formation” value (human blood lymphocytes)?
Its value is “highly significant”.

And the “retching and emesis responses” value ([2]; ferret)?
Its value is “none of the 10 ferrets”.

And the “IP maximum tolerated dose (MTD)” value [7]?
Its value is 504 ug/gm body weight.

What about the “H2O2-induced cell death eliminated” value [11] of the same molecule?
The value was about 80%.

And the “suppression of .OH-induced ROS DNA damage” value (pUC19 plasmid DNA [12])?
The value was “complete suppression”.

What about the “blood pressure response to challenge dose of IP epinephrine after drug” value [3] of the same molecule?
The value was “robust increase in blood pressure”.

And the “effect on blood pressure” value ([3]; ip)?
The value was “no reduction in blood pressure”.

And the “half-life of the thiol” value (buffer, pH 7.2)?
The value was 3.5 h.

What about the “conversion to disulfide form” value (pH 6) of the same molecule?
The value was “no discernible conversion”.
